Test results: patent publication USRE48335E1, “Polymyxin derivatives as antimicrobial compounds” (priority 2014, dated 2020)
In brackets after ≈: the same amount, converted by molar mass. Where two headings read alike, the source gives them in different places. Positions of bridges follow the written chain, without caps; N, C: chain ends. Non-standard residues stand in square brackets, D forms with d. Residues, ends and D or L forms follow the SMILES beside them. *: point of attachment. Benzoyl(3-CF3) = O=C(c1cccc(C(F)(F)F)c1)*; Phenylacetyl(3-Cl) = O=C(Cc1cccc(Cl)c1)*; Butanoyl(4-Ph) = O=C(CCCc1ccccc1)*; X10 = O=C(c1cc(F)cc(Cl)c1)*; X15 = O=C(c1ccc(Cl)c(F)c1)*; X11 = Cc1ccc(C(=O)*)cc1Cl; X14 = Cc1ccc(C(=O)*)cc1C; Dab = NCC[C@H](N)C(=O)O; Abu = CC[C@H](N)C(=O)O; Dap = NC[C@H](N)C(=O)O

Experiments:
Acinetobacter baumannii = tested on: Acinetobacter baumannii
Summary of the method: (§1)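 Broth microdilution MICs following CLSI standards in cation-adjusted Mueller-Hinton broth. Lipopeptides tested as TFA salts; polymyxin B sulphate served as control.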

Enterobacter cloacae = tested on: Enterobacter cloacae
Summary of the method: as §1

Klebsiella pneumoniae = tested on: Klebsiella pneumoniae
Summary of the method: as §1

Pseudomonas aeruginosa = tested on: Pseudomonas aeruginosa
Summary of the method: as §1

A. baumannii ATCC 19606 = test: In vivo efficacy in mouse blood infection model (neutropenic Swiss mice); settings: compound, free base 4 mg/kg intravenously 2 h after inoculation, blood at 4 h
Summary of the method: (§2)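 Neutropenic Swiss mice (cyclophosphamide 150 mg/kg day −4, 100 mg/kg day −1, i.p.) infected i.v. with early log-phase bacteria; 4 mg/kg free base i.v. given 2 h post-inoculation. Blood CFU by cardiac puncture 4 h post-dose; Δlog10 CFU/mL treated versus saline controls.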

P. aeruginosa ATCC 27853 = test: as above; settings: compound, free base 4 mg/kg intravenously 2 h after inoculation, blood at 4 h
Summary of the method: as §2

Row | SMILES | MIC (Acinetobacter baumannii) [µg/mL] | Minimum inhibitory concentration, Ab A ATCC 17978 (Acinetobacter baumannii) [µg/mL] | Minimum inhibitory concentration, Ab ATCC 19606 (Acinetobacter baumannii) [µg/mL] | Minimum inhibitory concentration, Ab FADDI-AB034 (Acinetobacter baumannii) [µg/mL] | Minimum inhibitory concentration, Ec FADDI-EC001 (Enterobacter cloacae) [µg/mL] | Minimum inhibitory concentration, Ec FADDI-EC003 (Enterobacter cloacae) [µg/mL] | Minimum inhibitory concentration, Ec FADDI-EC006 (Enterobacter cloacae) [µg/mL] | MIC (Klebsiella pneumoniae) [µg/mL] | MIC (Pseudomonas aeruginosa) [µg/mL] | Minimum inhibitory concentration, Pa ATCC 27853 (Pseudomonas aeruginosa) [µg/mL] | Minimum inhibitory concentration, Pa FADDI-PA022 (Pseudomonas aeruginosa) [µg/mL] | Minimum inhibitory concentration, Pa FADDI-PA025 (Pseudomonas aeruginosa) [µg/mL] | Δ log (Treated-Control at 4 h) (A. baumannii ATCC 19606) [log10 CFU/mL] | Δ log (Treated-Control at 4 h) (P. aeruginosa ATCC 27853) [log10 CFU/mL] | also measured
1 | CC(C)C[C@H]1NC(=O)[C@H](CCN)NC(=O)[C@@H](NC(=O)[C@@H](CO)NC(=O)[C@@H](NC(=O)[C@H](CCN)NC(=O)c2cccc(C(F)(F)F)c2)[C@@H](C)O)CCNC(=O)[C@H]([C@@H](C)O)NC(=O)[C@H](CCN)NC(=O)[C@H](CCN)NC(=O)[C@H]([C@@H](C)O)NC1=O [Compound 19] ({Benzoyl(3-CF3)}-[Dab]T[dS][Dab][Dab][dL]T[Dab][Dab]T; lactam 4-C) | 2 (≈ 1.7 µM) | 0.5 (≈ 0.425 µM) | 2 (≈ 1.7 µM) | 4 (≈ 3.4 µM) | 1 (≈ 0.85 µM) | 0.5 (≈ 0.425 µM) | 0.5 (≈ 0.425 µM) | 0.5 (≈ 0.425 µM) | 32 (≈ 27.2 µM) | 32 (≈ 27.2 µM) | 16 (≈ 13.6 µM) | >32 | −1.58 |  | 
2 | CC[C@@H]1NC(=O)[C@@H](CC(C)C)NC(=O)[C@H](CCN)NC(=O)[C@@H](NC(=O)[C@H](CN)NC(=O)[C@@H](NC(=O)[C@H](CCN)NC(=O)c2ccc(C)c(Cl)c2)[C@@H](C)O)CCNC(=O)[C@H]([C@@H](C)O)NC(=O)[C@H](CCN)NC(=O)[C@H](CCN)NC1=O [Compound 105] (X11-[Dab]T[Dap][Dab][Dab][dL][Abu][Dab][Dab]T; lactam 4-C) | 0.5 (≈ 0.439 µM) | 0.5 (≈ 0.439 µM) | 0.5 (≈ 0.439 µM) | 0.25 (≈ 0.219 µM) | 1 (≈ 0.877 µM) | 0.5 (≈ 0.439 µM) | 1 (≈ 0.877 µM) | 0.25 (≈ 0.219 µM) | 0.5 (≈ 0.439 µM) | 0.5 (≈ 0.439 µM) | 1 (≈ 0.877 µM) | 2 (≈ 1.75 µM) | −1.31 | −2.54 | 
3 | CC[C@@H]1NC(=O)[C@@H](CC(C)C)NC(=O)[C@H](CCN)NC(=O)[C@@H](NC(=O)[C@H](CN)NC(=O)[C@@H](NC(=O)[C@H](CCN)NC(=O)c2cc(F)cc(Cl)c2)[C@@H](C)O)CCNC(=O)[C@H]([C@@H](C)O)NC(=O)[C@H](CCN)NC(=O)[C@H](CCN)NC1=O [Compound 116] (X10-[Dab]T[Dap][Dab][Dab][dL][Abu][Dab][Dab]T; lactam 4-C) | 0.5 (≈ 0.437 µM) | 0.5 (≈ 0.437 µM) | 0.5 (≈ 0.437 µM) | 0.25 (≈ 0.219 µM) | 0.25 (≈ 0.219 µM) | 0.25 (≈ 0.219 µM) | 0.25 (≈ 0.219 µM) | 0.5 (≈ 0.437 µM) | 0.5 (≈ 0.437 µM) | 0.5 (≈ 0.437 µM) | 0.5 (≈ 0.437 µM) | 1 (≈ 0.874 µM) | −1.51 | −2.81 | 
4 | CC[C@@H]1NC(=O)[C@@H](CC(C)C)NC(=O)[C@H](CCN)NC(=O)[C@@H](NC(=O)[C@@H](CO)NC(=O)[C@@H](NC(=O)[C@H](CCN)NC(=O)c2cccc(C(F)(F)F)c2)[C@@H](C)O)CCNC(=O)[C@H]([C@@H](C)O)NC(=O)[C@H](CCN)NC(=O)[C@H](CCN)NC1=O [Compound 18] ({Benzoyl(3-CF3)}-[Dab]T[dS][Dab][Dab][dL][Abu][Dab][Dab]T; lactam 4-C) | 0.5 (≈ 0.431 µM) | 0.5 (≈ 0.431 µM) | 0.5 (≈ 0.431 µM) | 0.5 (≈ 0.431 µM) | 1 (≈ 0.862 µM) | 0.5 (≈ 0.431 µM) | 0.5 (≈ 0.431 µM) | 0.25 (≈ 0.215 µM) | 8 (≈ 6.89 µM) | 8 (≈ 6.89 µM) | 8 (≈ 6.89 µM) | 2 (≈ 1.72 µM) | −1.57 |  | 
5 | CC[C@@H]1NC(=O)[C@@H](CC(C)C)NC(=O)[C@H](CCN)NC(=O)[C@@H](NC(=O)[C@H](CN)NC(=O)[C@@H](NC(=O)[C@H](CCN)NC(=O)c2ccc(C)c(C)c2)[C@@H](C)O)CCNC(=O)[C@H]([C@@H](C)O)NC(=O)[C@H](CCN)NC(=O)[C@H](CCN)NC1=O [Compound 83] (X14-[Dab]T[Dap][Dab][Dab][dL][Abu][Dab][Dab]T; lactam 4-C) | 2 (≈ 1.79 µM) | 1 (≈ 0.893 µM) | 2 (≈ 1.79 µM) | 0.5 (≈ 0.447 µM) | 0.25 (≈ 0.223 µM) | 0.25 (≈ 0.223 µM) | 0.25 (≈ 0.223 µM) | 0.25 (≈ 0.223 µM) | 1 (≈ 0.893 µM) | 1 (≈ 0.893 µM) | 1 (≈ 0.893 µM) | 2 (≈ 1.79 µM) |  | −3.63 | 
6 | CC(C)C[C@H]1NC(=O)[C@H](CCN)NC(=O)[C@@H](NC(=O)[C@H](CN)NC(=O)[C@@H](NC(=O)[C@H](CCN)NC(=O)Cc2cccc(Cl)c2)[C@@H](C)O)CCNC(=O)[C@H]([C@@H](C)O)NC(=O)[C@H](CCN)NC(=O)[C@H](CCN)NC(=O)[C@H]([C@@H](C)O)NC1=O [Compound 61] ({Phenylacetyl(3-Cl)}-[Dab]T[Dap][Dab][Dab][dL]T[Dab][Dab]T; lactam 4-C) |  |  |  |  |  |  |  |  |  |  |  |  |  | −4.75 | MIC (Acinetobacter baumannii; A. baumannii ATCC 19606): 4 µg/mL (≈ 3.46 µM); Minimum inhibitory concentration, Ab A ATCC 17978 (Acinetobacter baumannii; Acinetobacter baumannii ATCC 17978, broth microdilution in CAMHB): 2 µg/mL (≈ 1.73 µM); Minimum inhibitory concentration, Ab ATCC 19606 (Acinetobacter baumannii; Acinetobacter baumannii ATCC 19606, broth microdilution in CAMHB): 4 µg/mL (≈ 3.46 µM); Minimum inhibitory concentration, Ab FADDI-AB034 (Acinetobacter baumannii; Acinetobacter baumannii FADDI-AB034, broth microdilution in CAMHB): 1 µg/mL (≈ 0.865 µM); Minimum inhibitory concentration, Ec FADDI-EC001 (Enterobacter cloacae; Enterobacter cloacae FADDI-EC001, broth microdilution in CAMHB): 0.25 µg/mL (≈ 0.216 µM); Minimum inhibitory concentration, Ec FADDI-EC003 (Enterobacter cloacae; Enterobacter cloacae FADDI-EC003, broth microdilution in CAMHB): 0.25 µg/mL (≈ 0.216 µM); Minimum inhibitory concentration, Ec FADDI-EC006 (Enterobacter cloacae; Enterobacter cloacae FADDI-EC006, broth microdilution in CAMHB): 0.25 µg/mL (≈ 0.216 µM); MIC (Klebsiella pneumoniae; K. pneumoniae FADDI-KP032): 0.25 µg/mL (≈ 0.216 µM); MIC (Pseudomonas aeruginosa; P. aeruginosa ATCC 27853): 0.5 µg/mL (≈ 0.433 µM); Minimum inhibitory concentration, Pa ATCC 27853 (Pseudomonas aeruginosa; Pseudomonas aeruginosa ATCC 27853, broth microdilution in CAMHB): 0.5 µg/mL (≈ 0.433 µM); Minimum inhibitory concentration, Pa FADDI-PA022 (Pseudomonas aeruginosa; Pseudomonas aeruginosa FADDI-PA022, broth microdilution in CAMHB): 0.5 µg/mL (≈ 0.433 µM); Minimum inhibitory concentration, Pa FADDI-PA025 (Pseudomonas aeruginosa; Pseudomonas aeruginosa FADDI-PA025, broth microdilution in CAMHB): >32 µg/mL
7 | CC[C@@H]1NC(=O)[C@@H](CC(C)C)NC(=O)[C@H](CCN)NC(=O)[C@@H](NC(=O)[C@H](CN)NC(=O)[C@@H](NC(=O)[C@H](CCN)NC(=O)c2ccc(Cl)c(F)c2)[C@@H](C)O)CCNC(=O)[C@H]([C@@H](C)O)NC(=O)[C@H](CCN)NC(=O)[C@H](CCN)NC1=O [Compound 107] (X15-[Dab]T[Dap][Dab][Dab][dL][Abu][Dab][Dab]T; lactam 4-C) | 2 (≈ 1.75 µM) | 0.5 (≈ 0.437 µM) | 2 (≈ 1.75 µM) | 0.25 (≈ 0.219 µM) | 0.25 (≈ 0.219 µM) | 0.25 (≈ 0.219 µM) | 0.25 (≈ 0.219 µM) | 0.25 (≈ 0.219 µM) | 0.5 (≈ 0.437 µM) | 0.5 (≈ 0.437 µM) | 0.5 (≈ 0.437 µM) | 2 (≈ 1.75 µM) |  | −2.98 | 
8 | CC(C)C[C@H]1NC(=O)[C@H](CCN)NC(=O)[C@@H](NC(=O)[C@H](CN)NC(=O)[C@@H](NC(=O)[C@H](CCN)NC(=O)CCCc2ccccc2)[C@@H](C)O)CCNC(=O)[C@H]([C@@H](C)O)NC(=O)[C@H](CCN)NC(=O)[C@H](CCN)NC(=O)[C@H](C)NC1=O [Compound 146] ({Butanoyl(4-Ph)}-[Dab]T[Dap][Dab][Dab][dL]A[Dab][Dab]T; lactam 4-C) | 4 (≈ 3.57 µM) |  |  |  |  |  |  | 0.5 (≈ 0.447 µM) | 0.5 (≈ 0.447 µM) |  |  |  |  | −3.63 | Minimum inhibitory concentration (MIC), Ab ATCC 17978 (Acinetobacter baumannii): 1 µg/mL (≈ 0.893 µM); Minimum inhibitory concentration (MIC), Ab ATCC 19606 (Acinetobacter baumannii): 4 µg/mL (≈ 3.57 µM); Minimum inhibitory concentration (MIC), Ab FADDI-AB034 (Acinetobacter baumannii): 2 µg/mL (≈ 1.79 µM); Minimum inhibitory concentration (MIC), Ec FADDI-EC001 (Enterobacter cloacae): 0.5 µg/mL (≈ 0.447 µM); Minimum inhibitory concentration (MIC), Ec FADDI-EC003 (Enterobacter cloacae): 0.25 µg/mL (≈ 0.223 µM); Minimum inhibitory concentration (MIC), Ec FADDI-EC006 (Enterobacter cloacae): 0.5 µg/mL (≈ 0.447 µM); Minimum inhibitory concentration (MIC), Pa ATCC 27853 (Pseudomonas aeruginosa): 0.5 µg/mL (≈ 0.447 µM); Minimum inhibitory concentration (MIC), Pa FADDI-PA022 (Pseudomonas aeruginosa): 0.5 µg/mL (≈ 0.447 µM); Minimum inhibitory concentration (MIC), Pa FADDI-PA025 (Pseudomonas aeruginosa): >32 µg/mL
